# Counter-ions that a name gives are not always drawn.
# Key:
# [1] = Pharmacokinetics following single oral dose administration in male Sprague-Dawley rats; assay type: in vivo; settings: single oral dose of the tartrate salt, 25 mg/kg, plasma, normalized to actual dosing concentration
# Procedure: Blood samples were collected from all animals in Groups 1-3 at 0.25, 0.5, 1, 2, 4, 6, 8, 12 and 24 hours post dose, with each animal bled at all time points. […] The slopes of the elimination phase of the concentrations vs. time curve used to calculate the T1/2 were determined by log-linear regression.
# PK analyses were performed and validated using Phoenix® WinNonlin® version 8.0.
# Estimated elimination half-life (tr) was also similar among treatment groups (ranged between 1.5 and 2.7 hours post-dose).
# [2] = biological target: T1, muscarinic acetylcholine receptor human M2 (hM2) (Homo sapiens, UniProt P08172); test: pERK dose response in CHO cells stably expressing hM2; assay type: cell-based; settings: rank hM3>hM5>hM2
# T1 construct: expressed in transfected cells
# T1 sequence (P08172 1-466): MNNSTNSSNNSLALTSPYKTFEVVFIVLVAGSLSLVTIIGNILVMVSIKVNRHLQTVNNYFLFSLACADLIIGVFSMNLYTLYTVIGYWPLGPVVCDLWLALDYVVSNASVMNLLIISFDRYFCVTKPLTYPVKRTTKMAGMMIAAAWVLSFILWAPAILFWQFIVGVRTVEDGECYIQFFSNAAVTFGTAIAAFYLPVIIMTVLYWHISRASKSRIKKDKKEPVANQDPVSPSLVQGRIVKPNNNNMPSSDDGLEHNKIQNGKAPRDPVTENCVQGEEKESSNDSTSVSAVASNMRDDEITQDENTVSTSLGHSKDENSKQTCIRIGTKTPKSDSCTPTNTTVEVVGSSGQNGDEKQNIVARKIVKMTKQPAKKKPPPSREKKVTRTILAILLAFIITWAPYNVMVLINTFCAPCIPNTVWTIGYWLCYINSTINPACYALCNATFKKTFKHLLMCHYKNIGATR
# [3] = biological target: T2, muscarinic acetylcholine receptor human M3 (hM3) (Homo sapiens, UniProt P20309); test: pERK dose response in CHO cells stably expressing hM3; assay type: cell-based; settings: for EC50: CHO cells expressing hM3, 5-minute incubation, normalized to maximum FBS response, n=3, read-out: pEC50 (pERK), M3 (converted); for agonist capacity at hM3: pERK, rank hM3>hM5>hM2
# T2 construct: expressed in transfected cells
# [4] = biological target: T3, muscarinic acetylcholine receptor human M5 (hM5) (Homo sapiens, UniProt P08912); test: pERK dose response in CHO cells stably expressing hM5; assay type: cell-based; settings: rank hM3>hM5>hM2
# T3 construct: expressed in transfected cells
# T3 sequence (P08912 1-532): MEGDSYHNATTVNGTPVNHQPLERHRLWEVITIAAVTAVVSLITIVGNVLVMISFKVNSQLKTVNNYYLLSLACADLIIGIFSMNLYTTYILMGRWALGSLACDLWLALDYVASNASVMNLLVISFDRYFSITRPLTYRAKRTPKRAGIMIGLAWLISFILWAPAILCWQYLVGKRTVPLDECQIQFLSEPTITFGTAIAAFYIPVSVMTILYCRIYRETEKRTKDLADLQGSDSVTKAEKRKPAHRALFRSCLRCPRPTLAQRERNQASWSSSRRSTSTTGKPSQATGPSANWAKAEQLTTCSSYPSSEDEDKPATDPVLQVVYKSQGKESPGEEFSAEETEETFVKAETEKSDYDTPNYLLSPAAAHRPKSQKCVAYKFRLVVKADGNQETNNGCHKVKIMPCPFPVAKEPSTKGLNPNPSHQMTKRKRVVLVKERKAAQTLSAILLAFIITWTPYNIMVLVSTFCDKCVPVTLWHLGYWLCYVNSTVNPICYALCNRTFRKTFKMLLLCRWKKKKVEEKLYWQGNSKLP
# Excerpt: (§1) The Flp-In™ cell lines are designed for rapid generation of stable cell lines that express a protein of interest from a Flp-In™ expression vector.
# (§2) Extracellular signal-related kinase (ERK1/2 or p42/44) is a kinase in the mitogen-activated protein kinase (MAPK) family. Phosphorylation of ERK (pERK) can be used as a common end point measurement for the activation of many classes of G protein coupled receptors (GPCR) and beta-arrestin linked signaling.
# (§3) For the pERK assay, cells were serum starved for 5 to 6 hours. Curves were normalized to the maximum response from the fetal bovine serum (FBS) medium corresponding to a 5-minute stimulation. A 5-minute incubation with the agonists was selected for the dose response pERK assays (n=2).
# (§4) Nonlinear regression curves were calculated per the three parameters method with no constraints.
# [5] = biological target: T4, muscarinic acetylcholine receptor human M4 (hM4) (Homo sapiens, UniProt P08173); settings: pERK; rank hM4>hM1
# T4 sequence (P08173 1-479): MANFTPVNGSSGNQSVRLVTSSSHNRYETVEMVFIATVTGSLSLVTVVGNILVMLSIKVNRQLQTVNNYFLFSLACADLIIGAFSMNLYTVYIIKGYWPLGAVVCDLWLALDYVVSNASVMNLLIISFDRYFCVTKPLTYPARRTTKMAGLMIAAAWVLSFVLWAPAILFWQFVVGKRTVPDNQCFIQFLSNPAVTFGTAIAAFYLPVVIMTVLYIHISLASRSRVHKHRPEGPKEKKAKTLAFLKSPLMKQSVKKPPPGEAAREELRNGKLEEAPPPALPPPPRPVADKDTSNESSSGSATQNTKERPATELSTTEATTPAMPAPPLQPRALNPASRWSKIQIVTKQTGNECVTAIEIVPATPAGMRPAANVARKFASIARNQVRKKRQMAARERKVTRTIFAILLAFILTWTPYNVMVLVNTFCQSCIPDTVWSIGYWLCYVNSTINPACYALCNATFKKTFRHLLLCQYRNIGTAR
# Excerpt: as §1, §2, §3, §4
# T2 sequence (P20309 whole entry): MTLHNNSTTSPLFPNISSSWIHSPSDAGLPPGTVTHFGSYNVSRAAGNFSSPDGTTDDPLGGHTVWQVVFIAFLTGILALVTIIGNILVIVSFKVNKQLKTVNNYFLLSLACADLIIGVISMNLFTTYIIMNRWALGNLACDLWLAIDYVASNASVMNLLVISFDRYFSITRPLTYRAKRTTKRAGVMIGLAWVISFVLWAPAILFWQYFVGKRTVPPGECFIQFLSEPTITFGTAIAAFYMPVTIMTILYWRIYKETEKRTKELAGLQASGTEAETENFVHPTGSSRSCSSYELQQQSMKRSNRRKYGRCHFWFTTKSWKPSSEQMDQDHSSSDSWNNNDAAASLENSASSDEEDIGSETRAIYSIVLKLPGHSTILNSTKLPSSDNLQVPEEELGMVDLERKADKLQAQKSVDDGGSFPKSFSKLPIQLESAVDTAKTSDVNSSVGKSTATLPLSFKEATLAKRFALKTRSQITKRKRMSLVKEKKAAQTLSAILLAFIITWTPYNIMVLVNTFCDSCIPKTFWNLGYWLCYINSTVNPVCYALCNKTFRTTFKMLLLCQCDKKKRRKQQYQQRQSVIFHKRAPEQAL
SMILES,normalized AUC [1] [pg·h/mg],agonist capacity at hM2 [2],EC50 [3] [nM],agonist capacity at hM3 [3],agonist capacity at hM5 [4],agonist capacity at hM4 [5]
"CCCCCCOc1nsnc1C1=CCCN(C)C1 [Xanomeline tartrate, 3-(hexyloxy)-4-(1-methyl-1,2,5,6-tetrahydropyridin-3-yl)-1,2,5-thiadiazole, reference compound]",4210,,,,,
"[2H]C([2H])([2H])C([2H])([2H])C([2H])([2H])C([2H])([2H])C([2H])([2H])C([2H])([2H])Oc1nsnc1C1=CCCN(C)C1 [Xanomeline-d13, 3-((hexyl-1,1,2,2,3,3,4,4,5,5,6,6,6-d13)oxy)-4-(1-methyl-1,2,5,6-tetrahydropyridin-3-yl)-1,2,5-thiadiazole]",8070,modestly potent partial agonists,9.66,modestly potent partial agonists,modestly potent partial agonists,efficacious partial agonist
"[2H]C([2H])([2H])N1CCC=C(c2nsnc2OC([2H])([2H])C([2H])([2H])C([2H])([2H])C([2H])([2H])C([2H])([2H])C([2H])([2H])[2H])C1 [Xanomeline-d16, 3-((hexyl-1,1,2,2,3,3,4,4,5,5,6,6,6-d13)oxy)-4-(1-(methyl-d3)-1,2,5,6-tetrahydropyridin-3-yl)-1,2,5-thiadiazole]",6780,modestly potent partial agonists,27.2,modestly potent partial agonists,modestly potent partial agonists,efficacious partial agonist
